{
  "source": "patent US20200179369A1",
  "about": "“TREATMENT OF DIABETIC NEPHROPATHY” (TAKEDA GMBH, priority 2015, published 2020)",
  "key": {"[1]": {"system": "uninephrectomized db/db mice", "assay": "Diabetic nephropathy in uninephrectomized db/db mice, 8 week treatment starting 12 weeks after the uninephrectomy", "assay_type": "in vivo", "conditions": "8 weeks starting 12 weeks after uninephrectomy", "experimental": "The experimental protocol is similar to the experimental protocol described above with the exception that the 8 week treatment with Compound A or irbesartan was started not already at 4 weeks after the uninephrectomy, but only 12 weeks after the uninephrectomy (i.e. when the increase of urinary albumin/creatinine ratio (UACR) is already in a much more advanced stage). Roflumilast was not used as a comparator in this experiment.\nCompound A (1, 3 and 10 mg/kg, QD) and irbesartan (50 and 100 mg/kg, QD) were suspended in 0.5% methyl cellulose solution and orally administered to mice for 8 weeks starting 12 weeks after the uninephrectomy.\nFor evaluation of the effects of Compound A, statistical differences between vehicle- and Compound A treated groups were analyzed with one-tailed Williams' test for GHB, PG and BW and one-tailed Shirley-Williams' test for UACR. For irbesartan, statistical differences between vehicle- and irbesartan treated groups were analyzed with one-tailed Williams' test for UACR, GHb, PG and BW. The P-values less than 0.025 were considered statistically significant in one-tailed Williams' test or one-tailed Shirley-Williams' test."}, "[2]": {"system": "uninephrectomized db/db mice", "assay": "Diabetic nephropathy in uninephrectomized db/db mice, 8 week treatment starting 4 weeks after the uninephrectomy", "assay_type": "in vivo", "conditions": "8 weeks starting 4 weeks after uninephrectomy", "experimental": "Male 5-week-old BKS.Cg-+Lepr^db/+Lepr^db (db/db) mice were purchased from CLEA Japan, Inc. All mice were fed with a standard diet (CE-2, CLEA Japan, Inc.) and tap water ad libitum.\nCompound A was obtained from Takeda GmbH, Konstanz, Germany. Irbesartan was purchased from LKT Laboratories, Inc (USA).\nIn 6 week old male db/db mice an unilateral nephrectomy was performed. Under the anesthesia with isoflurane inhalation, the right kidney was removed from the mice. After 4-week recovery period, blood samples were obtained by the puncture of facial vein and blood level of glycosylated hemoglobin (GHb) was measured by automated HPLC-based GHb analyzer (HLC-723 G8, TOSOH, Japan). After the separation of plasma samples by centrifugation, also plasma levels of glucose (PG) were measured by Autoanalyzer 7180 (Hitachi, Japan). Urine samples were collected for a 8 h time-period using metabolic cages and urine creatinine level was measured by Autoanalyzer 7180. After desaltation of urine samples with PD MiniTrap G-25 column (GE healthcare, UK), urinary levels of albumin were measured by ELISA, and urinary albumin/creatinine ratio (UACR) was calculated.\nCompound A (1, 3 and 10 mg/kg, QD), roflumilast (3 mg/kg, QD) and irbesartan (50 mg/kg, QD) were suspended in 0.5% methyl cellulose solution and orally administered to mice for 8 weeks starting 4 weeks after the uninephrectomy.\nAt the end of the 8 weeks once daily administration blood, plasma and urine samples were obtained according to the same methods as described above. GHb, PG, urinary creatinine and albumin were measured and UACR was calculated. Body weight (BW) was measured every week during the treatment.\nFor evaluation of the effects of Compound A, statistical differences between vehicle- and Compound A treated groups were analyzed with two-tailed Williams' test for PG and BW and two-tailed Shirley-Williams' test for UACR and GHb. The P-values less than 0.05 were considered statistically significant in two-tailed Williams' test or Shirley-Williams' test.\nFor roflumilast and irbesartan, statistical differences between vehicle- and compounds-treated groups were analyzed with Student's t-test for GHb, PG and BW and Welch test for UACR. The P-values less than 0.05 were considered statistically significant in Student's t-test and Welch test."}},
  "data": [
    {"smiles": "CCOc1cc2c(cc1OC)C(c1ccc(=O)n(C)c1)=N[C@@H]1CC[C@@H](O)C[C@H]21", "note": "[Compound A, 5-((2R,4aR,10bR)-9-Ethoxy-2-hydroxy-8-methoxy-1,2,3,4,4a,10b-hexahydro-phenanthridin-6-yl)1-methyl-1H-pyridin-2-one]", "values": [
      {"measurement": "effect on urinary albumin/creatinine ratio (UACR)", "setting": "[1]; 1 mg/kg QD oral", "result": "suppressed the increase of UACR"},
      {"measurement": "effect on urinary albumin/creatinine ratio (UACR)", "setting": "[1]; 3 mg/kg QD oral", "result": "reduced the UACR in the 3 mg/kg and 10 mg/kg group below the value at the beginning of the 8 weeks treatment period"},
      {"measurement": "effect on glucose plasma levels (PG)", "setting": "[1]; 10 mg/kg QD oral", "result": "statistical significant effect"},
      {"measurement": "effect on glycosylated hemoglobin (GHb)", "setting": "[1]; 10 mg/kg QD oral", "result": "statistical significant effect"},
      {"measurement": "effect on urinary albumin/creatinine ratio (UACR)", "setting": "[1]; 10 mg/kg QD oral", "result": "reduced the UACR in the 3 mg/kg and 10 mg/kg group below the value at the beginning of the 8 weeks treatment period"},
      {"measurement": "effect on body weight (BW)", "setting": "[1]; 1, 3 and 10 mg/kg QD oral", "result": "Neither Compound A nor Irbesartan affected the body weight"},
      {"measurement": "effect on glucose plasma levels (PG)", "setting": "[1]; 1, 3 and 10 mg/kg QD oral", "result": "reduced GHb and PG in a dose-dependant manner"},
      {"measurement": "effect on glycosylated hemoglobin (GHb)", "setting": "[1]; 1, 3 and 10 mg/kg QD oral", "result": "reduced GHb and PG in a dose-dependant manner"},
      {"measurement": "effect on increase of urinary albumin/creatinine ratio (UACR)", "setting": "[2]; 1 mg/kg QD oral", "result": "significantly suppressed the increase of UACR"},
      {"measurement": "effect on increase of urinary albumin/creatinine ratio (UACR)", "setting": "[2]; 3 mg/kg QD oral", "result": "almost completely inhibited the increase of UACR"},
      {"measurement": "effect on body weight", "setting": "[2]; 10 mg/kg QD oral", "result": "slightly, but statistically significantly, suppressed the increase of body weight"},
      {"measurement": "effect on increase of urinary albumin/creatinine ratio (UACR)", "setting": "[2]; 10 mg/kg QD oral", "result": "almost completely inhibited the increase of UACR"},
      {"measurement": "effect on blood level of glycosylated hemoglobin (GHb)", "setting": "[2]; 1, 3 and 10 mg/kg QD oral", "result": "significantly inhibited the elevation of GHb and PG in a dose-dependent manner"},
      {"measurement": "effect on plasma levels of glucose (PG)", "setting": "[2]; 1, 3 and 10 mg/kg QD oral", "result": "significantly inhibited the elevation of GHb and PG in a dose-dependent manner"}
    ]}
  ]
}
